The OligoGym collection
HELM strings list units from the 5' end as sugar, base in round brackets, then linkage (d deoxyribose, r ribose, m 2'-O-methyl, p phosphodiester). Strings are as the collection lists them; they lack the last nucleoside at the 3' end of the tested compound. [moe] = 2'-O-(2-methoxyethyl) (MOE); [sp] = phosphorothioate linkage; [m5C] = 5-methylcytosine

Molecular target: ATXN2
Experiment: mouse, dose not given
Conditions: ASO

| Substance | 3 h FOB score |
| --- | --- |
| RNA1{[moe](T)[sp].[moe](A)p.[moe]([m5C])p.[moe](T)p.[moe]([m5C])p.d(T)[sp].d([m5C])[sp].d([m5C])[sp].d(A)[sp].d(T)[sp].d(T)[sp].d(A)[sp].d(T)[sp].d(T)[sp].d(T)[sp].[moe]([m5C])p.[moe](T)p.[moe](T)[sp].[moe]([m5C])}$$$$ (last 3' nucleoside missing) | 2.25 score 0-7 |
| RNA1{[moe](T)[sp].[moe](A)p.[moe]([m5C])p.[moe](T)p.d(T)[sp].d(T)[sp].d(T)[sp].d([m5C])[sp].d(T)[sp].d([m5C])[sp].d(A)[sp].d(T)[sp].d(G)[sp].d(T)[sp].[moe](G)p.[moe]([m5C])p.[moe](G)p.[moe](G)[sp].[moe]([m5C])}$$$$ (last 3' nucleoside missing) | 1.75 score 0-7 |
| RNA1{[moe](T)[sp].[moe](G)[sp].[moe]([m5C])[sp].[moe](A)[sp].[moe](T)[sp].d(A)[sp].d(G)[sp].d(A)[sp].d(T)[sp].d(T)[sp].d([m5C])[sp].d([m5C])[sp].d(A)[sp].d(T)[sp].d([m5C])[sp].[moe](A)[sp].[moe](A)[sp].[moe](A)[sp].[moe](A)}$$$$ (last 3' nucleoside missing) | 7 score 0-7 |
| RNA1{[moe](T)[sp].[moe](G)p.[moe](A)p.[moe](G)p.[moe](T)p.d(T)[sp].d([m5C])[sp].d(A)[sp].d([m5C])[sp].d([m5C])[sp].d(T)[sp].d(G)[sp].d([m5C])[sp].d(A)[sp].d(T)[sp].[moe]([m5C])p.[moe]([m5C])p.[moe]([m5C])[sp].[moe](A)}$$$$ (last 3' nucleoside missing) | 5.75 score 0-7 |
| RNA1{[moe](T)[sp].[moe](G)p.[moe](A)p.[moe](T)p.[moe]([m5C])p.d(T)[sp].d(T)[sp].d(G)[sp].d(T)[sp].d(G)[sp].d(T)[sp].d(A)[sp].d(T)[sp].d(A)[sp].d(T)[sp].[moe](A)p.[moe](T)p.[moe](T)[sp].[moe](A)}$$$$ (last 3' nucleoside missing) | 6 score 0-7 |
| RNA1{[moe](T)[sp].[moe](G)p.[moe](G)p.[moe](A)p.[moe](T)[sp].d(T)[sp].d([m5C])[sp].d(T)[sp].d(G)[sp].d(T)[sp].d(A)[sp].d([m5C])[sp].d(T)[sp].[moe](T)p.[moe](T)p.[moe](T)[sp].[moe]([m5C])}$$$$ (last 3' nucleoside missing) | 5.25 score 0-7 |
| RNA1{[moe](T)[sp].[moe](G)p.[moe](G)p.[moe](A)p.[moe](T)p.[moe](T)p.d([m5C])[sp].d(T)[sp].d(G)[sp].d(T)[sp].d(A)[sp].d([m5C])[sp].d(T)[sp].d(T)[sp].d(T)[sp].d(T)[sp].[moe]([m5C])p.[moe](T)[sp].[moe]([m5C])}$$$$ (last 3' nucleoside missing) | 1 score 0-7 |
| RNA1{[moe](T)[sp].[moe](G)p.[moe](G)p.[moe](A)p.[moe](T)p.d(T)[sp].d([m5C])[sp].d(T)[sp].d(G)[sp].d(T)[sp].d(A)[sp].d([m5C])[sp].d(T)[sp].d(T)[sp].d(T)[sp].[moe](T)p.[moe]([m5C])p.[moe](T)[sp].[moe]([m5C])}$$$$ (last 3' nucleoside missing) | 5.25 score 0-7 |
| RNA1{[moe](T)[sp].[moe](G)p.[moe](G)p.[moe](A)p.d(T)[sp].d(T)[sp].d([m5C])[sp].d(T)[sp].d(G)[sp].d(T)[sp].d(A)[sp].d([m5C])[sp].d(T)[sp].d(T)[sp].[moe](T)p.[moe](T)p.[moe]([m5C])p.[moe](T)[sp].[moe]([m5C])}$$$$ (last 3' nucleoside missing) | 3.5 score 0-7 |
| RNA1{[moe](T)[sp].[moe](G)p.[moe](G)p.[moe](T)p.[moe](G)[sp].d(G)[sp].d(T)[sp].d(G)[sp].d(T)[sp].d(G)[sp].d([m5C])[sp].d(G)[sp].d([m5C])[sp].[moe](A)p.[moe](T)p.[moe](G)[sp].[moe](T)}$$$$ (last 3' nucleoside missing) | 6.25 score 0-7 |
| RNA1{[moe](T)[sp].[moe](G)p.[moe](G)p.[moe](T)p.[moe](G)p.[moe](G)p.d(T)[sp].d(G)[sp].d(T)[sp].d(G)[sp].d([m5C])[sp].d(G)[sp].d([m5C])[sp].d(A)[sp].d(T)[sp].d(G)[sp].[moe](T)p.[moe](A)[sp].[moe](G)}$$$$ (last 3' nucleoside missing) | 7 score 0-7 |
| RNA1{[moe](T)[sp].[moe](G)p.[moe](G)p.[moe](T)p.[moe](G)p.d(G)[sp].d(T)[sp].d(G)[sp].d(T)[sp].d(G)[sp].d([m5C])[sp].d(G)[sp].d([m5C])[sp].d(A)[sp].d(T)[sp].[moe](G)p.[moe](T)p.[moe](A)[sp].[moe](G)}$$$$ (last 3' nucleoside missing) | 6.5 score 0-7 |
| RNA1{[moe](T)[sp].[moe](G)p.[moe](G)p.[moe](T)p.[moe](T)p.d([m5C])[sp].d([m5C])[sp].d(T)[sp].d(T)[sp].d(A)[sp].d([m5C])[sp].d(A)[sp].d(A)[sp].d(T)[sp].d(T)[sp].[moe](A)p.[moe](T)p.[moe]([m5C])[sp].[moe](T)}$$$$ (last 3' nucleoside missing) | 0 score 0-7 |
| RNA1{[moe](T)[sp].[moe](G)p.[moe](G)p.[moe](T)p.d(G)[sp].d(G)[sp].d(T)[sp].d(G)[sp].d(T)[sp].d(G)[sp].d([m5C])[sp].d(G)[sp].d([m5C])[sp].d(A)[sp].[moe](T)p.[moe](G)p.[moe](T)p.[moe](A)[sp].[moe](G)}$$$$ (last 3' nucleoside missing) | 6.75 score 0-7 |
| RNA1{[moe](T)[sp].[moe](G)p.[moe](T)p.[moe](A)[sp].[moe]([m5C])[sp].d(T)[sp].d(T)[sp].d([m5C])[sp].d(A)[sp].d([m5C])[sp].d(A)[sp].d(T)[sp].d(T)[sp].d(T)[sp].d(G)[sp].[moe](G)p.[moe](A)p.[moe](G)[sp].[moe]([m5C])}$$$$ (last 3' nucleoside missing) | 3 score 0-7 |
| RNA1{[moe](T)[sp].[moe](G)p.[moe](T)p.[moe](A)p.[moe]([m5C])[sp].d(T)[sp].d(T)[sp].d(T)[sp].d(T)[sp].d([m5C])[sp].d(T)[sp].d([m5C])[sp].d(A)[sp].[moe](T)p.[moe](G)p.[moe](T)[sp].[moe](G)}$$$$ (last 3' nucleoside missing) | 0 score 0-7 |
| RNA1{[moe](T)[sp].[moe](G)p.[moe](T)p.[moe](A)p.[moe]([m5C])[sp].d(T)[sp].d(T)[sp].d([m5C])[sp].d(A)[sp].d([m5C])[sp].d(A)[sp].d(T)[sp].d(T)[sp].[moe](T)p.[moe](G)p.[moe](G)[sp].[moe](A)}$$$$ (last 3' nucleoside missing) | 3.5 score 0-7 |
| RNA1{[moe](T)[sp].[moe](G)p.[moe](T)p.[moe](A)p.[moe]([m5C])[sp].d(T)[sp].d(T)[sp].d([m5C])[sp].d(A)[sp].d([m5C])[sp].d(A)[sp].d(T)[sp].d(T)[sp].d(T)[sp].d(G)[sp].[moe](G)p.[moe](A)p.[moe](G)[sp].[moe]([m5C])}$$$$ (last 3' nucleoside missing) | 3 score 0-7 |
| RNA1{[moe](T)[sp].[moe](G)p.[moe](T)p.[moe](A)p.[moe]([m5C])p.[moe](T)p.d(T)[sp].d([m5C])[sp].d(A)[sp].d([m5C])[sp].d(A)[sp].d(T)[sp].d(T)[sp].d(T)[sp].d(G)[sp].d(G)[sp].[moe](A)p.[moe](G)[sp].[moe]([m5C])}$$$$ (last 3' nucleoside missing) | 2.5 score 0-7 |
